Measurements as given in paper PMC5560554, “Targeting of CDK9 with indirubin 3’-monoxime safely and durably reduces HIV viremia in chronically infected humanized mice” (PLoS ONE, 2017).
“And” between values parts separate entries of the source, which are not always exact repeats. Equal values may be shown once.

What was measured:
[1] = Pharmacokinetics of IM in NSG mice (single i.p. injection, plasma by HPLC); assay type: in vivo; conditions: for Conc (plasma IM), individual mice: 40 mg/kg
Method: Fasting, female NSG mice (n = 16) were injected with 40 mg/kg IM via i.p. Blood samples were obtained pre-dose (30 minutes before compound injection) and at 5, 15, 30, 60, 120, 180, 240 and 300 minutes after injection using a sparse sampling design (n = 2 samples per mouse, n = 4 samples per time point). Separated plasma was further extracted and processed for analysis, and IM concentrations determined using HPLC analysis. In brief, sample processing involved extraction of plasma (30 μL) with 400 μL acetonitrile and 2 μg/mL internal standard ([…]). The sample was briefly vortexed and centrifuged (12 minutes, 6°C), with transfer of 400 μL of supernatant to a clean test tube. The sample was evaporated to dryness under nitrogen, reconstituted in 50 μL of methanol:water (75:25), and 20 μL was injected onto the column. The concentration of primary analyte (IM) and internal standard (IS) d4-estrone were determined using a Shimadzu Nexera X2 liquid chromatography system coupled with a SPD-M30A UV-VIS diode array detector. The liquid chromatography separation was performed on a Prodigy ODS-3V C18 column, 250 × 4.6 mm, 5 μm. The mobile phase consisted of 35% water and 65% Methanol (Optima LC-MS grade) delivered at a flow rate of 0.85 mL/min. Retention times for IM and IS were 13 and 15 minutes, respectively, with detection at 280 nm. The IM peak identity was confirmed using the complete 240–600 nm absorbance spectra. The standard concentration curve was linear over the range of 0.025 μg/mL– 4.0 μg/mL using regression plots of IM to internal standard peak area ratios versus drug concentrations derived with 1/x2 weighting. […] Non-compartmental pharmacokinetic parameters were determined from pooled average data at each time point using Phoenix WinNonlin v6.4 (Certara, St. Louis, MO).
We evaluated the pharmacokinetics of IM in NSG mice following a single i.p. injection of 40 mg/kg, a dose that inhibited plasma HIV RNA levels by 2 log 10 units in our previous study. Data (S1 Table) were plotted on concentration-time curves and pharmacokinetic parameter values determined (Fig 1). […] Thus, IM concentrations above HIV EC50 values are rapidly achieved and maintained for > 3 h following i.p. injection of 40 mg/kg IM.
Fig 1 Pharmacokinetics of IM in mice. NSG mice (n = 16) were i.p. injected with 40 mg/kg IM. Blood samples were obtained pre-dose and at 5, 15, 30, 60, 120, 180, 240 and 300 minutes after injection using a sparse sampling design (n = 2 samples per mouse, n = 4 samples per time point). Separated plasma was further extracted and processed for analysis, and IM concentrations were determined using HPLC analysis.

[2] = system: macrophages; conditions: cited from earlier work
[3] = system: HIV-1 NL4-3; experiment: Drug susceptibility assay in PHA-activated PBMCs (HIV p24 ELISA day 7); assay type: cell-based; conditions: PBMCs, NL4-3, day 7
Method: The ARTs tenofovir, raltegravir and indinavir were obtained from the NIH AIDS Research and Reference Reagent Program (Gaithersburg, MD). Drug susceptibility assays were performed in PBMCs as previously. Briefly, donor PBMCs were activated by culture with phytohemagglutinin (PHA) for 3 days. Activated PBMCs were infected with HIV (M.O.I of 0.001) for 2 hours in the absence of IM or ARTs, washed to remove non-adsorbed virus, and plated in culture medium containing IL-2 and various dilutions of IM and ARTs alone and in combination. On day 3, fresh medium with fresh drug was added to the cultures. On day 7, cultures were evaluated for HIV production by measuring HIV p24 levels in the culture supernatants by ELISA (PerkinElmer Life Sciences, Inc., Boston, Massachusetts). Data were normalized to p24 levels in drug untreated controls (100%) and EC50 values determined by fitting the data to sigmoidal dose-response (variable slope) curves using GraphPad Prism 5.0 software.
A potential use of CDK9 inhibitor for the treatment of HIV will probably be in combination with ARTs from other classes. We thus evaluated the antiviral interaction between IM and ARTs from the NRTI, integrase and protease inhibitor classes in PBMCs infectivity assays in vitro. We used the virus strain HIV-1 NL4-3 to ensure a robust viral replication in the assays. Although HIV-1 NL4-3 differs from HIV-1 BaL in usage of coreceptor for cell entry, it is expected to have similar sensitivity to the tested ARTs. […] These enhancements of ART potencies by IM are consistent with targeting of different steps of the HIV cycle by IM and the tested ARTs.

[4] = system: HIV; design: method as in PMID 16284457; conditions: macrophages; read-out: EC50 for inhibition of HIV in vitro; cited from earlier work

O=C1Nc2ccccc2/C1=C1/Nc2ccccc2/C1=N\O [IM, Indirubin 3’-monoxime]
Conc (plasma IM), individual mice ([1]; 5 min after i.p. 40 mg/kg): 1056 ng/mL and 1492 ng/mL and 1336 ng/mL and 54 ng/mL
Conc (plasma IM), individual mice ([1]; 15 min after i.p. 40 mg/kg): 3005 ng/mL and 2975 ng/mL and 3996 ng/mL and 2773 ng/mL
Conc (plasma IM), individual mice ([1]; 30 min after i.p. 40 mg/kg): 4918 ng/mL and 2550 ng/mL and 29 ng/mL and 3217 ng/mL
Conc (plasma IM), individual mice ([1]; 60 min after i.p. 40 mg/kg): 2983 ng/mL and 2619 ng/mL and 2828 ng/mL and 2005 ng/mL
Conc (plasma IM), individual mice ([1]; 120 min after i.p. 40 mg/kg): 4276 ng/mL and 1171 ng/mL and 1632 ng/mL and 14 ng/mL
Conc (plasma IM), individual mice ([1]; 180 min after i.p. 40 mg/kg): 380 ng/mL and 1062 ng/mL and 56 ng/mL and 217 ng/mL
Conc (plasma IM), individual mice ([1]; 240 min after i.p. 40 mg/kg): 285 ng/mL and 58 ng/mL and 14 ng/mL and 376 ng/mL
Conc (plasma IM), individual mice ([1]; 300 min after i.p. 40 mg/kg): 44 ng/mL and 79 ng/mL and 83 ng/mL and 35 ng/mL
AUC ([1]; single i.p. 40 mg/kg, plasma): 370 ± 64 µg·min/mL
elimination t1/2 ([1]; single i.p. 40 mg/kg, plasma): 42.4 min
maximum concentration of IM in plasma (Cmax) ([1]; single i.p. 40 mg/kg, plasma): 3190 ± 270 ng/mL
Cmax ([1]; single i.p. 40 mg/kg, plasma, converted from μg/mL): 11.5 ± 0.97 µM
cytotoxicity [2]: not cytotoxic
P24 ([3]; IM alone (IND 0 nM), IND experiment, untreated control 55.00): 4.00 ng/mL
P24 ([3]; IM alone (RAL 0 nM), RAL experiment, untreated control 24.0): 8.00 ng/mL
P24 ([3]; IM alone (TDF 0 µM), TDF experiment, untreated control 50.0): 10.0 ng/mL
EC50 [4]: 500 nM
